The record followed here is patent publication US20240279236A1, “COMPOUNDS AND METHODS OF TREATING TUBERCULOSIS” (Fimbrion Therapeutics, Inc., priority 2021, published 2024).

Molecules are shown by their SMILES.

For this assay, the system named is WT Mtb Erdman strain. In words: Microplate Alamar Blue Assay (MABA), Mtb growth inhibition. The class given is cell-based, Mycobacterium tuberculosis. As to conditions: Mycobacterium tuberculosis, ERDMAN, 168 h, Middlebrook 7H9 media, 7 days at 37° C. in 5% CO2.
Consider `Cc1cc2c(NCCCc3ccc(-c4cnc5[nH]ccc5n4)cc3)nc(-c3ccoc3)nc2s1` [Example 397, 2-(furan-3-yl)-6-methyl-N-[3-(4-(5H-pyrrolo[2,3-b]pyrazin-2-yl)phenyl)propyl] thieno[2,3-d] pyrimidin-4-amine], for which it took 5000 nM to reach half-maximal inhibition (IC50). That is a single-digit micromolar value. `FC(F)(F)Oc1ccc(CCCNc2nc(-c3ccccn3)nc3sccc23)cc1` [Example 35, 2-(pyridin-2-yl)-N-(3-(4-(trifluoromethoxy)phenyl)propyl)thieno[2,3-d]pyrimidin-4-amine] gave an IC50 of 2200 nM. With `Cc1cc2c(N[C@@H]3C[C@H]3c3ccc(F)c(F)c3)nc(Sc3ccccc3)nc2s1` [Example 155, N-((1R,2S)-2-(3,4-difluorophenyl)cyclopropyl)-6-methyl-2-(phenylthio)thieno[2,3-d]pyrimidin-4-amine], the IC50 was above 10000 nM. `Cc1cccc(CCCNc2nc(C(F)(F)F)nc3sc(C)cc23)c1` [Example 228, 6-methyl-N-(3-(m-tolyl)propyl)-2-(trifluoromethyl)thieno [2,3-d]pyrimidin-4-amine] returned an IC50 of 1500 nM. As to `Cc1cc2c(NCCCc3ccc(N)cc3)nc(C(F)(F)F)nc2s1` [Example 235, N-(3-(4-aminophenyl)propyl)-6-methyl-2-(trifluoromethyl) thieno[2,3-d]pyrimidin-4-amine], the IC50 is above 9900 nM. With `CCc1nc(NCCCc2ccc(-c3ccncc3)cc2)c2cc(C)sc2n1` [Example 271, 2-ethyl-6-methyl-N-(3-(4-(pyridin-4-yl)phenyl)propyl) thieno[2,3-d]pyrimidin-4-amine], half-maximal inhibition (IC50) required 350 nM. Take `Cc1cc2c(NCCCc3ccccc3)nc(-c3ccc(N(C)C)cc3)nc2s1` [Example 92, 2-(4-(dimethylamino)phenyl)-6-methyl-N-(3-phenylpropyl)thieno [2,3-d]pyrimidin-4-amine]: the midpoint of inhibition, the IC50, lay at 2700 nM. `Cc1cc2c(NCCCc3ccccc3)nc([S+](C)[O-])nc2s1` (stereo not drawn) [Example 581, 6-methyl-2-(methylsulfinyl)-N-(3-phenylpropyl)thieno[2,3-d]pyrimidin-4-amine] had an IC50 of 1300 nM. In turn, `CCc1nc(NCCCc2ccc(-c3ccc(OC(F)(F)F)c(F)c3)cc2)c2cc(C)sc2n1` [Example 306, 2-ethyl-N-(3-(3′-fluoro-4′-(trifluoromethoxy)-[1,1′-biphenyl]-4-yl)propyl)-6-methylthieno[2,3-d]pyrimidin-4-amine] registered a half-inhibitory concentration (IC50) of 47 nM. Compared with the last compound, the IC50 is about 28-fold lower. In the case of `CCc1nc(NCCCc2ccc(C(C)(C)C)cc2)c2cc(C)sc2n1` [Example 203, N-(3-(4-(tert-butyl)phenyl)propyl)-2-ethyl-6-methylthieno[2,3-d]pyrimidin-4-amine] it was 89 nM; in that of `CCc1nc(NCCCc2ccc(Nc3ccccc3)cc2)c2cc(C)sc2n1` [Example 590, 2-ethyl-6-methyl-N-(3-(4-(phenylamino)phenyl)propyl)thieno[2,3-d]pyrimidin-4-amine], 530 nM; in that of `CCc1nc(NCCCc2ccccc2)c2cc(C(F)(F)F)sc2n1` [Example 99, 2-ethyl-N-(3-phenylpropyl)-6-(trifluoromethyl)thieno [2,3-d]pyrimidin-4-amine], 5700 nM.

Consider `Cc1nc(NCCCc2ccccc2)c2ncsc2n1` [Example 584, 5-methyl-N-(3-phenylpropyl)thiazolo[5,4-d]pyrimidin-7-amine], for which the IC50 was above 10000 nM. In the case of `Cc1cc2c(NCCCc3ccc(-c4cnc(F)cn4)cc3)nc(-c3ccoc3)nc2s1` [Example 377, N-(3-[4-(5-fluoropyrazin-2-yl)phenyl]propyl)-2-(furan-3-yl)-6-methylthieno [2,3-d]pyrimidin-4-amine] it was 8 nM; in that of `COc1nc(NCCCc2ccc(-c3ccc(OC(F)(F)F)cc3)cc2)c2nc(C)sc2n1` [Example 547, 5-methoxy-2-methyl-N-(3-[4′-(trifluoromethoxy)-[1,1′-biphenyl]-4-yl]propyl)-[1,3]thiazolo[5,4-d]pyrimidin-7-amine], 33 nM.
